Values of other authors in paper PMC4136950 (Journal of peptide science : an official publication of the …, 2010).

How the values were obtained:
[1] = biological target: NR2A NMDA receptor subtype (co-expressed with NR1-2b) (Rattus norvegicus, UniProt P35439+Q00959); details: read-out: Approximate IC50, NR2A
[2] = biological target: NR2B NMDA receptor subtype (co-expressed with NR1-2b) (Rattus norvegicus, UniProt P35439+Q00960); details: read-out: Approximate IC50, NR2B
[3] = biological target: NR2C NMDA receptor subtype (co-expressed with NR1-2b) (Rattus norvegicus, UniProt P35439+Q00961); details: read-out: Approximate IC50, NR2C
[4] = biological target: NR2D NMDA receptor subtype (co-expressed with NR1-2b) (Rattus norvegicus, UniProt P35439+Q62645); details: read-out: Approximate IC50, NR2D
[5] = tested on: NMDA receptor subtypes NR2(A-D)

Chain of NR2A NMDA receptor subtype (co-expressed with NR1-2b) (Q00959 23-1464, other chains not shown): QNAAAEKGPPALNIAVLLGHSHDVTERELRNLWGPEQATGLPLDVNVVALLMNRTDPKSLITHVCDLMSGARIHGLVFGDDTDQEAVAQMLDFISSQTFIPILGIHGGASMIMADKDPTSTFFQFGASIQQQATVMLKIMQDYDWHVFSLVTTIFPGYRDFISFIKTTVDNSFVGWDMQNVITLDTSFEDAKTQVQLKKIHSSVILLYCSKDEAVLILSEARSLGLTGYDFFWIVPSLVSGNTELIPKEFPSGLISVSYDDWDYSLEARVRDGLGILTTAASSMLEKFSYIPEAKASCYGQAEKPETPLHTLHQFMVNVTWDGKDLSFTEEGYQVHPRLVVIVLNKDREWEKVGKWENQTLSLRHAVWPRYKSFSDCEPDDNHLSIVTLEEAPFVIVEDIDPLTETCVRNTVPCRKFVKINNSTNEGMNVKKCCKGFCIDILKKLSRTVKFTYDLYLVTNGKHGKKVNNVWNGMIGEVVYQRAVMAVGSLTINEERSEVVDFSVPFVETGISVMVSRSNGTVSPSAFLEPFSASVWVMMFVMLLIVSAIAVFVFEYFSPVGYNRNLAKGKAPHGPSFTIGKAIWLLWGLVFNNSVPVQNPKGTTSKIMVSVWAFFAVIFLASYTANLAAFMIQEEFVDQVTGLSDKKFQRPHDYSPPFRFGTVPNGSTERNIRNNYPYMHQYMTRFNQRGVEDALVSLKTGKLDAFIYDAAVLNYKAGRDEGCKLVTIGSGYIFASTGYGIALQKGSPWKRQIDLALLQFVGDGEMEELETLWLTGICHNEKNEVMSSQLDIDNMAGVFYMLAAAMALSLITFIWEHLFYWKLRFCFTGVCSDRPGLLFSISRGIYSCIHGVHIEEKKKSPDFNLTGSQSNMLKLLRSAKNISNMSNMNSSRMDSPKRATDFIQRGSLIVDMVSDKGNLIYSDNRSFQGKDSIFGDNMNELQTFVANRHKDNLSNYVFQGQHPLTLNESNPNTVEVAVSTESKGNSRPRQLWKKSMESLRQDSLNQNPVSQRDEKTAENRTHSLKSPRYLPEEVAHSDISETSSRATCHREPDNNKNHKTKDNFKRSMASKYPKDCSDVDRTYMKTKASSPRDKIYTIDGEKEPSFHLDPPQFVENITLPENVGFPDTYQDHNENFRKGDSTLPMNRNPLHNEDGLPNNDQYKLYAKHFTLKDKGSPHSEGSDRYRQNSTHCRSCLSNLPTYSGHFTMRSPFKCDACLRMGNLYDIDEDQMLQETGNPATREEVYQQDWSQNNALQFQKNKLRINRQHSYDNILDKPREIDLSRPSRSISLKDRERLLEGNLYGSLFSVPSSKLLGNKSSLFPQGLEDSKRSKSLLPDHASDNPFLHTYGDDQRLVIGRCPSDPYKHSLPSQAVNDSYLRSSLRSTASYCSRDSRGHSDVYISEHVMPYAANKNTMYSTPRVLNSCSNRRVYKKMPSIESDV
Chain of NR2C NMDA receptor subtype (co-expressed with NR1-2b) (Q00961 20-1237, other chains not shown): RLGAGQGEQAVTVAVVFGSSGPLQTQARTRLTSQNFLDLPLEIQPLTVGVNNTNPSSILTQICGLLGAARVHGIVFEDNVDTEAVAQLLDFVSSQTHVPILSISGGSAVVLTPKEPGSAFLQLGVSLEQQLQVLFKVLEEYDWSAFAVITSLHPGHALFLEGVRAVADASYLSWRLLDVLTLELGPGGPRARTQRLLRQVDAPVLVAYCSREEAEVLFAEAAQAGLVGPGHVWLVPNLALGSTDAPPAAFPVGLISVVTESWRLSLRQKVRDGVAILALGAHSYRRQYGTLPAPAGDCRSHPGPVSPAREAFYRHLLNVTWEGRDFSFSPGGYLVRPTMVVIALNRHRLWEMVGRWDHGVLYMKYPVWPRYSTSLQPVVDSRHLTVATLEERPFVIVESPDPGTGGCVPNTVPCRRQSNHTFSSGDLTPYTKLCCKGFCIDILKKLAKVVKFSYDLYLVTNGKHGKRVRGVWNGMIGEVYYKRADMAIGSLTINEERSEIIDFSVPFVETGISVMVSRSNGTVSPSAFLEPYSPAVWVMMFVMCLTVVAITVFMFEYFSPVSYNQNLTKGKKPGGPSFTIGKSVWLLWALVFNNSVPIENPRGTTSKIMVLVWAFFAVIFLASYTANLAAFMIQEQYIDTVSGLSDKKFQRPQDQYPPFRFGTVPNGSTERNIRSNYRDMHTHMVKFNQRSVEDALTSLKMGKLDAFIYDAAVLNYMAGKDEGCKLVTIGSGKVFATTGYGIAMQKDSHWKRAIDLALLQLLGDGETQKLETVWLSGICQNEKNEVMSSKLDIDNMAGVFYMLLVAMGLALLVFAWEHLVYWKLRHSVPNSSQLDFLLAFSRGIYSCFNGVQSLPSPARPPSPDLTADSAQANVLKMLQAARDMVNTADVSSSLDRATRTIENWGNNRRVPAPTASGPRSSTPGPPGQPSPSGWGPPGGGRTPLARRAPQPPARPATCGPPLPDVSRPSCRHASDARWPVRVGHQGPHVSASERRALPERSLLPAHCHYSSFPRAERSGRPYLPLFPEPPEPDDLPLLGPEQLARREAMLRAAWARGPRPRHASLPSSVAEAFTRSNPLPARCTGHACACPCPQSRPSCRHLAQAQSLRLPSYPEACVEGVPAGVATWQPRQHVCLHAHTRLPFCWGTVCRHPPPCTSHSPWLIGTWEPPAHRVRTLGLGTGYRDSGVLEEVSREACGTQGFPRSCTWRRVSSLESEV
Chain of NR2D NMDA receptor subtype (co-expressed with NR1-2b) (Q62645 28-1323, other chains not shown): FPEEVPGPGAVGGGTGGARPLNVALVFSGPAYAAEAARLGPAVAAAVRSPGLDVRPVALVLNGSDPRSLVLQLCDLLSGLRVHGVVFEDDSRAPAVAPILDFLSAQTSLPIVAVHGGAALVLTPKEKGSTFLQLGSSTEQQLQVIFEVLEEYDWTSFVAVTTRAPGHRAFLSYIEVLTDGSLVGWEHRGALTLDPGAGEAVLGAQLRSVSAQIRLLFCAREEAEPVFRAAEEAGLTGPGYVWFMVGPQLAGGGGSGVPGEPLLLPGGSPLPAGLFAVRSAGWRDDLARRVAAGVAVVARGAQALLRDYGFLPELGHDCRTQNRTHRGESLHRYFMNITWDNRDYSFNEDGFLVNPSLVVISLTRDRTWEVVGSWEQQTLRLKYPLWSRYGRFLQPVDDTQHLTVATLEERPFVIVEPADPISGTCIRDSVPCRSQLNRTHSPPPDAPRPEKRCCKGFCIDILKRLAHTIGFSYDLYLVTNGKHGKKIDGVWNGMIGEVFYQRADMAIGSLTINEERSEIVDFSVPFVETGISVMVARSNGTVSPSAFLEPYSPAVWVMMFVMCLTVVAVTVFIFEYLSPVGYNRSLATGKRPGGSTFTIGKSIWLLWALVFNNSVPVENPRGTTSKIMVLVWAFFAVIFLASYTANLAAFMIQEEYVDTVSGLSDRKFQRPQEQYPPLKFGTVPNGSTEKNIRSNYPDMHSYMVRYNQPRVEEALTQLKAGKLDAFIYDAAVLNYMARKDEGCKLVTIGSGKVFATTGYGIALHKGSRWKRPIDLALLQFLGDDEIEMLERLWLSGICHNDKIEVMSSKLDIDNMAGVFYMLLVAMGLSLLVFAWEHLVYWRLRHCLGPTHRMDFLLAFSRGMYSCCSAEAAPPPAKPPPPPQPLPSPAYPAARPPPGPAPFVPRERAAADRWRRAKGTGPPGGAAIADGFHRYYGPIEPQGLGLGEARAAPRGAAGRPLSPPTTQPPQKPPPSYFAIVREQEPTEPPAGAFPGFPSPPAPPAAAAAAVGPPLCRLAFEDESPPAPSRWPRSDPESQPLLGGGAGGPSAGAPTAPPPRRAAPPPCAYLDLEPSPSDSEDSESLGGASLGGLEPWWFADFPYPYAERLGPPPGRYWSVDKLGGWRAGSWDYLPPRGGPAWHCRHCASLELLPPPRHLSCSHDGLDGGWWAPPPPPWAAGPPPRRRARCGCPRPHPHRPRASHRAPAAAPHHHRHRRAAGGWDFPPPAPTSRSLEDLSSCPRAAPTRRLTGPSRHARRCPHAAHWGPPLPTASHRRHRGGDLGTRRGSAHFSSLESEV

GDγγ YSK FIγ RERγ AGR LDLSKFP^^ [ConBr]
IC50 [1]: 680 nM | IC50 [2]: 140 nM | IC50 [3]: 4900 nM | IC50 [4]: 310 nM | antagonism of NMDA receptor subtypes [5]: known antagonist of the NR2B and NR2D NMDA receptor subtypes
